# Assay results published in patent US20190202820A1, “PROCESS FOR PRODUCING FLUORINATED COMPOUNDS USING ALCOHOL SOLVENT HAVING CARBONYL GROUP” (FUTURECHEM CO., LTD., priority 2018, published 2019).
# “Also recorded” adds a separate entry of the source. Like-named read-outs stand apart in the source and are kept apart here.
# Assay: Comparison of solubility of the precursor compound according to the kind of reaction solvent (observation with the naked eye)
# Format: physicochemical
# Conditions: for State of the solution when the temperature dropped to room temperature: t-amyl alcohol, then dropped to room temperature
# Procedure: The solubility of FP-CIT, FDG, FLT, FMISO, and FC119S at room temperature and at 60° C. according to the different solvents of methyl 2-hydroxyisobutyrate solvent of the present invention and t-amyl alcohol solvent of the prior art (KR 10-0789847) was investigated.
# [1] = reaction solvent methyl 2-hydroxyisobutyrate (present invention), precursor amount 4-20 mg, naked eye
# [2] = reaction solvent methyl 2-hydroxyisobutyrate (present invention), room temperature, precursor amount 4-20 mg, naked eye
# [3] = reaction solvent t-amyl alcohol (KR 10-0789847), precursor amount 4-20 mg, naked eye
# [4] = reaction solvent t-amyl alcohol (KR 10-0789847), room temperature, precursor amount 4-20 mg, naked eye
Solubility Room temperature,State of the solution after cooling to room temperature,Structure (SMILES),"State of the solution after cooling to room temperature (methyl-2-hydroxyisobutyrate, dissolved at 60° C., then cooled to room temperature)",Solubility 60° C. [1],Solubility Room temperature [2],Solubility 60° C. [3],Solubility Room temperature [4],State of the solution when the temperature dropped to room temperature (dissolved at 60° C.),"Solubility Room temperature (reaction solvent methyl 2-hydroxyisobutyrate (present invention), room temperature, precursor amount 4-20 mg, naked eye, p-toluenesulfonate)"
–,–,CN(C(=O)OC(C)(C)C)c1ccc(-c2nc3ccc(OC[C@@H](COS(=O)(=O)c4ccc([N+](=O)[O-])cc4)OC4CCCCO4)cc3s2)cn1 (some centres unmarked) [FC119S],remained as a solution,dissolved,undissolved,not dissolved; also recorded: undissolved,undissolved,–,–
–,–,"CC(=O)OC[C@H]1O[C@@H](OC(C)=O)[C@@H](OS(=O)(=O)C(F)(F)F)[C@@H](OC(C)=O)[C@@H]1OC(C)=O [FDG, 1,3,4,6-tetra-O-acetyl-2-O-trifluoro-methanesulfonyl-beta-D-mannopyranose]",–,dissolved,dissolved,dissolved,undissolved,precipitated again as solids,–
undissolved,remained as a solution,"Cc1cn([C@H]2C[C@H](OS(=O)(=O)c3ccc([N+](=O)[O-])cc3)[C@@H](COC(c3ccccc3)(c3ccccc3)c3ccccc3)O2)c(=O)n(C(=O)OC(C)(C)C)c1=O [FLT, 3-N-Boc-5′-O-trityl-3′-O-nosyl-thymidine]",–,–,–,–,–,–,–
–,–,"COC(=O)[C@H]1[C@@H](c2ccc(I)cc2)C[C@@H]2CC[C@H]1[N+]21CCC1.Cc1ccc(S(=O)(=O)[O-])cc1 [FP-CIT, (1′R, 2′S, 3′S, 5′S)-3′-(4-iodophenyl)-2′-(methoxycarbonyl)spiro[azetidine-1,8′-bicyclo[3,2,1]octan]-1-ium p-toluenesulfonate]",–,dissolved,–,dissolved,undissolved,precipitated again as solids,completely dissolved
